The source of these data is ChEMBL document CHEMBL5584317, “Acroamine A, a 2-Amino Adenine Alkaloid from the Marine Soft Coral Acrozoanthus australiae and Its Semisynthetic Derivatives That Inhibit cAMP-Dependent Protein Kinase A Catalytic Subunit Alpha” (J Nat Prod, 2024).

Assay [1] deals with T1, cAMP-dependent protein kinase catalytic subunit alpha (Homo sapiens, UniProt P17612). The assay can be described thus: Potency index, ratio of IC50 for acroamine A to IC50 for test compound for inhibition PKAcalpha (unknown origin) using CREB KRREILSRRPSYR-biotinylated peptide as substrate incubated for 45 mins in presence of ATP by ELISA. In general terms: ELISA stands for enzyme-linked immunosorbent assay.

Assay [2] deals with T1, cAMP-dependent protein kinase catalytic subunit alpha. Nature of the assay: Inhibition of PKAcalpha (unknown origin) using CREB KRREILSRRPSYR-biotinylated peptide as substrate incubated for 45 mins in presence of ATP by ELISA.
The nature of assay [3]: Inhibition of DNAJB1-[…] gene fusion of J-PKAc alpha chimeric protein (unknown origin) using CREB KRREILSRRPSYR-biotinylated peptide as substrate incubated for 45 mins in presence of ATP by ELISA. Also noted: species or system Homo sapiens.
For assay [4], the species on record is Homo sapiens. The assay can be described thus: Inhibition of DNAJB1-[…] gene fusion of J-PKAc alpha chimeric protein (unknown origin) at 2 uM using CREB KRREILSRRPSYR-biotinylated peptide as substrate incubated for 45 mins in presence of 25 to 250 uM ATP by ELISA.
Assay [5] is filed under the species Homo sapiens. Nature of the assay: Potency index, ratio of IC50 for acroamine A to IC50 for test compound for inhibition of DNAJB1-[…] gene fusion of J-PKAc alpha chimeric protein (unknown origin) using CREB KRREILSRRPSYR-biotinylated peptide as substrate incubated for 45 mins in presence of ATP by ELISA.
The target of assay [6] is T1, cAMP-dependent protein kinase catalytic subunit alpha. Nature of the assay: Inhibition of PKAcalpha (unknown origin) up to 200 uM using CREB KRREILSRRPSYR-biotinylated peptide as substrate incubated for 45 mins in presence of ATP by ELISA.
For assay [7], the species on record is Homo sapiens. The assay can be described thus: Inhibition of DNAJB1-[…] gene fusion of J-PKAc alpha chimeric protein (unknown origin) up to 200 uM using CREB KRREILSRRPSYR-biotinylated peptide as substrate incubated for 45 mins in presence of ATP by ELISA.
For assay [8], the species on record is Homo sapiens. The assay can be described thus: Inhibition of DNAJB1-[…] gene fusion of J-PKAc alpha chimeric protein (unknown origin) at 10 uM using CREB KRREILSRRPSYR-biotinylated peptide as substrate incubated for 45 mins in presence of 25 to 250 uM ATP by ELISA.

Molecules are shown by their SMILES. The source made the active and inactive calls. No cut-off for these calls is given here.

By IC50 is commonly meant the concentration that gives 50% inhibition. In the case of `Nc1nc(NCCc2nc(Br)[nH]c2Br)c2nc(Br)[nH]c2n1`, the Ratio IC50 in assay [1] and in assay [5] was 19 each time. In addition, the half-maximal inhibitory concentration (IC50) was determined as 2.4 µM in assay [2] and 2.5 µM in assay [3]. Moreover, the inhibition entry in assay [4] is “inactive”.
In the case of `Nc1nc(NCCc2c[nH]cn2)c2nc[nH]c2n1`, the figures for the half-inhibitory concentration (IC50) in assay [2] and in assay [3] were 29 µM and 47 µM, respectively.
In the case of `C/N=c1\nc(NCCc2cn(C)c[n+]2C)c2c(ncn2C)n1C`, the inhibition result in assay [6] and in assay [7] was “inactive” each time.
Take `C/N=c1\nc(N(C)CCc2cn(C)c[n+]2C)c2c(ncn2C)n1C`: the inhibition entry in assay [6] and in assay [7] was “inactive” in each case.
`Nc1nc(NCCc2nc(Br)[nH]c2Br)c2nc[nH]c2n1`: in assay [8], the inhibition entry is “inactive”. The IC50 in assay [2] was 5.7 µM; in assay [3], 8.9 µM.
With `Cn1cc(CCNc2nc(=N)n(C)c3ncn(C)c23)[n+](C)c1`, the inhibition entry in assay [6] and in assay [7] was “inactive” each time.
Consider `Nc1nc(NCCc2nc[nH]c2Br)c2nc[nH]c2n1`, for which, in assay [8], the inhibition entry is “inactive”. Also, the 50% inhibitory concentration (IC50) came out at 11.6 µM in assay [2] and 11.5 µM in assay [3].
Consider `Cn1cc(CCNc2n/c(=N\C=[N+](C)C)n(C)c3ncn(C)c23)[n+](C)c1`, for which the inhibition entry in assay [6] and in assay [7] was “inactive” throughout.
In the case of `CN(C)c1nc(NCCc2cn(C)c[n+]2C)c2c(n1)[n+](C)cn2C`, the inhibition result in assay [6] and in assay [7] was “inactive” throughout.
